Patent US5523407A, “Quinoline derivatives, their production and use as ACAT inhibitors” (Takeda Chemical Industries, Ltd., priority 1989, dated 1996)

Key:
[1] = biological target: T1, Acyl-CoA: cholesterol acyltransferase (ACAT) (Rattus norvegicus, UniProt Q7TQM4); assay: ACAT inhibitory activity (rat small intestine mucosal microsome; labeled cholesterol ester from [1-^14 C] oleoyl-CoA); format: biochemical, Sprague-Dawley rat; settings: 10^-6 M test compound; read-out: ACAT Inhibition Rate
T1 construct: from the mucosal microsome fraction of the small intestine; from tissue; host or cells: small intestine mucosal microsomes, male 6-week old Sprague-Dawley rats fasted 20 hours
T1 sequence (Q7TQM4 1-524): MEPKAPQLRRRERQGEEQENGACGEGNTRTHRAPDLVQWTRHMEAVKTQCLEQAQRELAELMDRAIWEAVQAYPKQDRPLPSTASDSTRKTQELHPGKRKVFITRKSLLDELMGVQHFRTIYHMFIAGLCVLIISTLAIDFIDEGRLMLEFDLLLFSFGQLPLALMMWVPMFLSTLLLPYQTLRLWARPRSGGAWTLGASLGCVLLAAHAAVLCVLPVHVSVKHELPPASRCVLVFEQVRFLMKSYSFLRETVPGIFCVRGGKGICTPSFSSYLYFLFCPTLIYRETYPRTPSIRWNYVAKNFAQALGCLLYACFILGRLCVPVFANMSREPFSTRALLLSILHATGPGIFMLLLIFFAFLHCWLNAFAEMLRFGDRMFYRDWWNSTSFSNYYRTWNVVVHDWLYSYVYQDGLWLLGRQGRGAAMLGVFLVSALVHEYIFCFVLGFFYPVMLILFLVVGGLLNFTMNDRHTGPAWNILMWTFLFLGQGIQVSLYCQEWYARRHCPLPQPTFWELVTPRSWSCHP
Procedure: 1. Acyl-CoA: cholesterol acyltransferase (ACAT) inhibitory activity
The enzyme ACAT was prepared by the method of Heider et al. described in Journal of Lipid Research, Vol. 24, page 1127 (1982), from the mucosal microsome fraction of the small intestine of male, 6-week old Sprague-Dawley rats which had been fasted for 20 hours.
ACAT activity was calculated by the method of Helgerud et. al. described in Journal of Lipid Research, Vol. 22, page 271 (1981), namely, by measuring the amount of the labeled cholesterol ester produced from [1-^14 C] oleoyl-CoA and endogenous cholesterol.
Inhibition rates (%) of the production of the labeled cholesterol ester wherein 10-^6 M of test compounds were added are shown as an index of ACAT inhibitory activity in Table 1.

[2] = test system: lipoperoxide production in homogenized brain; assay: Lipoperoxide inhibitory activity (natural oxidation of homogenized rat brain, malonodialdehyde by TBA method); format: biochemical, Sprague-Dawley rat; settings: for Lipoperoxide inhibition rate: 10^-5 M test compound; for IC50: read-out: Lipoperoxide Inhibitory Activity, 50% inhibitory concentration (IC50)
Procedure: 2. Lipoperoxide inhibitory activity
From 10-week, old, male Sprague-Dawely rats which were fed CE-2 diet (Nippon Claire) and water, their brains were taken out by the method of Stocks disclosed in Clinical Science Molecular Medicine, Vol. 78, page 215 (1974), to form lipoperoxide by natural oxidation. The compound (I) in an amount of 10-^3 moles was dissolved in ethanol, and the resultant (10 μl) was added to each homogenized brain. On the other hand, ethanol from which the compound (I) was removed was added to a control group of homogenized brain. A malonodialdehyde was measured by the (TBA) method disclosed in Okawa et al., Analysis Biochemistry, Vol. 95, page 351 (1979). The produced lipoperoxide was calculated based on the measured value of malonodialdehyde.

SMILES	inhibition at 1 µM [1] [%]	Lipoperoxide inhibition rate [2] [%]	IC50 [2] [µM]
Cc1cc(C)c2ncc(NC(=O)C=Cc3cc(C)c(O)c(C)c3C)c(-c3ccccc3Cl)c2c1 [Example 35, 4-(2-chlorophenyl)-3-(4-hydroxy-2,3,-trimethylcinnamoylamino)-6,8-dimethylquinoline]	81.7	84.9	0.81
Cc1cc(C)c2ncc(NC(=O)c3cc(C(C)(C)C)c(O)c(C(C)(C)C)c3)c(-c3ccccc3Cl)c2c1 [Example 1, 4-(2-chlorophenyl)-3-(3,5-di-tert-butyl-4-hydroxybenzamido)-6,8-dimethylquinoline]	82.2		
Cc1cc(C)c2ncc(NC(=O)c3cc(C)c(O)c(C)c3C)c(-c3ccccc3Cl)c2c1 [Example 11, 4-(2-chlorophenyl)-3-(4-hydroxy-2,3,5-trimethylbenzamido)-6,8-dimethylquinoline]	94.3		
Cc1cc(C)c2ncc(NC(=O)C=Cc3cc(C)c(O)c(C)c3)c(-c3ccccc3Cl)c2c1 [Example 34, 4-(2-chlorophenyl)-3-(4-hydroxy-3,5-dimethylcinnamoylamino)-6,8-dimethylquinoline]	86.4	62.1	
COc1ccc(C=CC(=O)Nc2c(-c3ccccc3Cl)c3cc(C)cc(C)c3n(C)c2=O)cc1OC [Example 36, 4-(2-chlorophenyl)-3-(3,4-dimethoxycinnamoylamino)-1,6,8-trimethyl-2(1H)-quinolone]	63		
Cc1cc(C)c2ncc(NC(=O)C3(C)CCc4c(C)c(O)c(C)c(C)c4O3)c(-c3ccccc3Cl)c2c1 (stereo not drawn) [Example 12, 4-(2-chlorophenyl)-3-(6-hydroxy-2,5,7,8-tetramethylchroman-2-ylcarbonyl)amino-6,8-dimethylquinoline]	41.2	98.5	
COc1ccc(-c2c(NC(=O)c3cc(C(C)(C)C)c(O)c(C(C)(C)C)c3)cnc3ccc(Cl)cc23)c(OC)c1OC [Example 4, 3-(3,5-di-tert-butyl-4-hydroxybenzamido)-6-chloro-4-(2,3,4-trimethoxyphenyl) quinoline]	84.8		
COc1ccc(OC)c(C=CC(=O)Nc2cnc3c(C)cc(C)cc3c2-c2ccccc2Cl)c1 [Example 25, 4-(2-chlorophenyl)-3-(2,5-dimethoxycinnamoylamino)-6,8-dimethylquinoline]	73.7		
CC(=O)Oc1c(C(C)C)cc(C(=O)Nc2cnc3c(C)cc(C)cc3c2-c2ccccc2Cl)cc1C(C)C [Example 6, 3-(4-acetoxy-3,5-diisopropylbenzamido)-4-(2-chlorophenyl)-6,8-dimethylquinoline]	79.3		
CC(=O)Oc1c(C)cc(C(=O)Nc2cnc3c(C)cc(C)cc3c2-c2ccccc2Cl)cc1C [Example 8, 3-(4-acetoxy-3,5-dimethylbenzamido)-4-(2-chlorophenyl)-6,8-dimethylquinoline]	62		
O=C(C=Cc1ccc(O)c(O)c1)Nc1cnc2ccc(Cl)cc2c1-c1ccccc1Cl [Example 43, 6-chloro-4-(2-chlorophenyl)-3-(3,4-dihydroxycinnamoylamino)quinoline]	97		
COc1cc(C=CC(=O)Nc2cnc3c(C)cc(C)cc3c2-c2ccccc2Cl)cc(OC)c1O [Example 33, 4-(2-chlorophenyl)-3-(4-hydroxy-3,5-dimethoxycinnamonylamino)-6,8-dimethylquinoline]	81.7	96.1	1.3
Cc1cc(C)c2ncc(NC(=O)C3(C)Cc4c(C)c(O)c(C)c(C)c4O3)c(-c3ccccc3Cl)c2c1 (stereo not drawn) [Example 14, 4-(2-chlorophenyl)-3-(2,3-dihydro-5-hydroxy-2,4,6,7-tetramethylbenzofuran-2-ylcarbonyl)amino-6,8-dimethylquinoline]	83.1	98.4	0.37
COc1cc(C=CC(=O)Nc2cnc3c(C)cc(C)cc3c2-c2ccccc2Cl)cc(OC)c1OC(C)=O [Example 27, 3-(4-acetoxy-3,5-dimethoxylcinnamoylamino)-4-(2-chlorophenyl)-6,8-dimethylquinoline]	83.7	90.2	
Cc1cc(C)c2ncc(NC(=O)C=Cc3cccc(O)c3O)c(-c3ccccc3Cl)c2c1 [Example 32, 4-(2-chlorophenyl)-3-(2,3-dihydroxycinnamoylamino)-6,8-dimethylquinoline]	66.6	99.7	0.4
CC1=C(C(=O)Nc2cnc3c(C)cc(C)cc3c2-c2ccccc2Cl)Sc2ccccc2N1 [Example 15, 4-(2-chlorophenyl)-6,8-dimethyl-3-(3-methyl-4H-1,4-benzothiazin-2-ylcarbonyl) aminoquinoline]	76		
COc1ccc(C=CC(=O)Nc2cnc3c(C)cc(C)cc3c2-c2ccccc2Cl)c(OC)c1OC [Example 46, 4-(2-chlorophenyl)-6,8-dimethyl-3-(2,3,4-trimethoxycinnamoylamino) quinoline]	72.6		
COC(=O)c1ccc(C=CC(=O)Nc2cnc3c(C)cc(C)cc3c2-c2ccccc2Cl)cc1 [Example 23, 4-(2-chlorophenyl)-3-(4-methoxycarbonylcinnamoylamino)-6,8-dimethylquinoline]	65.9		
COc1cccc(C=CC(=O)Nc2cnc3c(C)cc(C)cc3c2-c2ccccc2Cl)c1OC [Example 24, 4-(2-chlorophenyl)-3-(2,3-dimethoxycinnamoylamino)-6,8-di-methylquinoline]	69.4		
Cc1cc(C)c2ncc(NC(=O)C=Cc3ccc(O)c(O)c3)c(-c3ccccc3Cl)c2c1 [Example 38, 4-(2-chlorophenyl)-3-(3,4-dihydroxycinnamoylamino)-6,8-dimethylquinoline]	78.2		
CC(=O)Oc1c(C)c(C)c2c(c1C)CC(C)(C(=O)Nc1cnc3c(C)cc(C)cc3c1-c1ccccc1Cl)O2 (stereo not drawn) [Example 13, 3-(5-acetoxy-2,3-dihydro-2,4,6,7-tetramethylbenzofuran-2-ylcarbonyl)amino-4-(2-chlorophenyl)-6,8-dimethylquinoline]	64.7	71.6	
CC1=C(C(=O)Nc2cnc3c(C)cc(C)cc3c2-c2ccccc2Cl)Sc2cc(F)ccc2N1 [Example 16, 4-(2-chlorophenyl)-3-(7-fluoro-3-methyl-4H-1,4-benzothiazin-2-ylcarbonyl)amino-6,8-dimethylquinoline]	72.6	100	1.2
COc1ccc(-c2c(NC(=O)c3cc(C(C)(C)C)c(O)c(C(C)(C)C)c3)cnc3ccc(Cl)cc23)cc1OC [Example 3, 3-(3,5-di-tert-butyl-4-hydroxybenzamido)-6-chloro-4-(3,4-dimethoxyphenyl)quinoline]	83.4		
COc1ccc(C=CC(=O)Nc2cnc3cc(C)c(C)cc3c2-c2ccccc2Cl)cc1OC [Example 22, 4-(2-chlorophenyl)-3-(3,4-dimethoxycinnamoylamino)-6,7-di-methylquinoline]	92.6		
Cc1cc(C)c2ncc(NC(=O)Cc3ccc(F)cc3F)c(-c3ccccc3Cl)c2c1 [Example 18, 4-(2-chlorophenyl)-3-(2,4-difluorophenylacetylamino)-6,8-dimethylquinoline]	94		
